≈ marks a conversion by molar mass, not a printed value. Blank lines part the entries; values can stand above or below the molecule they belong to.
Legend:
Bacteria = assay: Inhibitory activity against bacteria in the transcription/translation assay; type: functional, organism-based
Enterococcus hirae [1] = assay: Minimal inhibitory concentration against gram positive Enterococcus hirae 29212 strain (Range is 25-50 uM); type: functional
Escherichia coli [2] = assay: Minimal inhibitory concentration against Escherichia coli; type: functional
Escherichia coli [3] = assay: Minimal inhibitory concentration against gram negative Escherichia coli 25922 strain; type: functional; details: ATCC25922
Klebsiella pneumoniae [4] = assay: Minimal inhibitory concentration against gram negative Klebsiella pneumoniae 13383 strain (Range is 50-100 uM); type: functional
Pseudomonas aeruginosa [5] = assay: Minimal inhibitory concentration against gram negative Pseudomonas aeruginosa 25416 strain; type: functional
Proteus vulgaris [6] = assay: Minimal inhibitory concentration against gram negative Proteus vulgaris 8427 strain; type: functional
Staphylococcus aureus [7] = assay: Minimal inhibitory concentration against Staphylococcus aureus (Range is 6-12 uM); type: functional
Staphylococcus aureus [8] = assay: Minimal inhibitory concentration against gram positive Staphylococcus aureus 13709 strain (Range is 6-12 uM); type: functional
Streptococcus pneumoniae [9] = assay: Minimal inhibitory concentration against gram positive Streptococcus pneumoniae 6303 strain (Range is 6-12 uM); type: functional
Streptococcus pyogenes [10] = assay: Minimal inhibitory concentration against gram positive Streptococcus pyogenes 49399 strain (Range is 25-50 uM); type: functional
Enterococcus hirae [11] = assay: Minimal inhibitory concentration against gram positive Enterococcus hirae 29212 strain (Range is 3-6 uM); type: functional
Escherichia coli [12] = assay: Minimal inhibitory concentration against Escherichia coli (Range is 12-25 uM); type: functional
Escherichia coli [13] = assay: Minimal inhibitory concentration against gram negative Escherichia coli 25922 strain (Range is 12-25 uM); type: functional; details: ATCC25922
Klebsiella pneumoniae [14] = assay: Minimal inhibitory concentration against gram negative Klebsiella pneumoniae 13383 strain (Range is 6-12 uM); type: functional
Pseudomonas aeruginosa [15] = assay: Minimal inhibitory concentration against gram negative Pseudomonas aeruginosa 25416 strain (Range is 25-50 uM); type: functional
Proteus vulgaris [16] = assay: Minimal inhibitory concentration against gram negative Proteus vulgaris 8427 strain (Range is 25-50 uM); type: functional
Streptococcus pyogenes [17] = assay: Minimal inhibitory concentration against gram positive Streptococcus pyogenes 49399 strain (Range is 6-12 uM); type: functional
Streptococcus pneumoniae [18] = assay: Minimal inhibitory concentration against gram positive Streptococcus pneumoniae 6303 strain (Range is 12-25 uM); type: functional
Enterococcus hirae [19] = assay: Minimal inhibitory concentration against gram positive Enterococcus hirae 29212 strain (Range is 0.75-1.5 uM); type: functional
Escherichia coli [20] = assay: Minimal inhibitory concentration against gram negative Escherichia coli 25922 strain (Range is 12-26 uM); type: functional; details: ATCC25922
Klebsiella pneumoniae [21] = assay: Minimal inhibitory concentration against gram negative Klebsiella pneumoniae 13383 strain (Range is 25-50 uM); type: functional
Pseudomonas aeruginosa [22] = assay: Minimal inhibitory concentration against gram negative Pseudomonas aeruginosa 25416 strain (Range is 6-12 uM); type: functional
Staphylococcus aureus [23] = assay: Minimal inhibitory concentration against Staphylococcus aureus (Range is 12-25 uM); type: functional
Staphylococcus aureus [24] = assay: Minimal inhibitory concentration against gram positive Staphylococcus aureus 13709 strain (Range is 3-7 uM); type: functional
Enterococcus hirae [25] = assay: Minimal inhibitory concentration against gram positive Enterococcus hirae 29212 strain (Range is 1-3 uM); type: functional
Escherichia coli [26] = assay: Minimal inhibitory concentration against Escherichia coli (Range is 6-12 uM); type: functional
Escherichia coli [27] = assay: Minimal inhibitory concentration against gram negative Escherichia coli 25922 strain (Range is 6-12 uM); type: functional; details: ATCC25922
Pseudomonas aeruginosa [28] = assay: Minimal inhibitory concentration against gram negative Pseudomonas aeruginosa 25416 strain (Range is 12-25 uM); type: functional
Staphylococcus aureus [29] = assay: Minimal inhibitory concentration against Staphylococcus aureus (Range is 3-6 uM); type: functional
Staphylococcus aureus [30] = assay: Minimal inhibitory concentration against gram positive Staphylococcus aureus 13709 strain (Range is 3-6 uM); type: functional
Streptococcus pyogenes [31] = assay: Minimal inhibitory concentration against gram positive Streptococcus pyogenes 49399 strain (Range is 3-6 uM); type: functional

IC50 (Bacteria): > 100 µM
MIC (Enterococcus hirae [1]): 50 µM (≈ 21.8 µg/mL)
MIC (Escherichia coli [2]): > 100 µM
MIC (Escherichia coli [3]): > 100 µM
MIC (Klebsiella pneumoniae [4]): 100 µM (≈ 43.5 µg/mL)
MIC (Pseudomonas aeruginosa [5]): > 100 µM
MIC (Proteus vulgaris [6]): > 100 µM
MIC (Staphylococcus aureus [7]): 12 µM (≈ 5.22 µg/mL)
MIC (Staphylococcus aureus [8]): 12 µM (≈ 5.22 µg/mL)
MIC (Streptococcus pneumoniae [9]): 12 µM (≈ 5.22 µg/mL)
MIC (Streptococcus pyogenes [10]): 50 µM (≈ 21.8 µg/mL)
SMILES: O=C1C=CC(=O)N1CCCCCn1c(C2CCNCC2)nc2cc(Cl)c(Cl)cc21

IC50 (Bacteria): > 100 µM
MIC (Enterococcus hirae [11]): 6 µM (≈ 3.07 µg/mL)
MIC (Escherichia coli [12]): 25 µM (≈ 12.8 µg/mL)
MIC (Escherichia coli [13]): 25 µM (≈ 12.8 µg/mL)
MIC (Klebsiella pneumoniae [14]): 12 µM (≈ 6.14 µg/mL)
MIC (Pseudomonas aeruginosa [15]): 50 µM (≈ 25.6 µg/mL)
MIC (Proteus vulgaris [16]): 50 µM (≈ 25.6 µg/mL)
MIC (Staphylococcus aureus [7]): 12 µM (≈ 6.14 µg/mL)
MIC (Staphylococcus aureus [8]): 12 µM (≈ 6.14 µg/mL)
MIC (Streptococcus pyogenes [17]): 12 µM (≈ 6.14 µg/mL)
MIC (Streptococcus pneumoniae [18]): 25 µM (≈ 12.8 µg/mL)
SMILES: O=C(Cn1c(C2CCNCC2)nc2cc(Cl)c(Cl)cc21)NNC(=O)Nc1ccc2ccccc2c1

IC50 (Bacteria): 35 µM
MIC (Enterococcus hirae [19]): 1.5 µM (≈ 0.913 µg/mL)
MIC (Escherichia coli [12]): 25 µM (≈ 15.2 µg/mL)
MIC (Escherichia coli [20]): 26 µM (≈ 15.8 µg/mL)
MIC (Klebsiella pneumoniae [21]): 50 µM (≈ 30.4 µg/mL)
MIC (Pseudomonas aeruginosa [22]): 12 µM (≈ 7.3 µg/mL)
MIC (Proteus vulgaris [16]): 50 µM (≈ 30.4 µg/mL)
MIC (Staphylococcus aureus [23]): 25 µM (≈ 15.2 µg/mL)
MIC (Staphylococcus aureus [24]): 7 µM (≈ 4.26 µg/mL)
MIC (Streptococcus pneumoniae [9]): 12 µM (≈ 7.3 µg/mL)
MIC (Streptococcus pyogenes [10]): 50 µM (≈ 30.4 µg/mL)
SMILES: Clc1cc2nc(C3CCNCC3)n(CCCCCn3c(C4CCNCC4)nc4cc(Cl)c(Cl)cc43)c2cc1Cl

IC50 (Bacteria): > 100 µM
MIC (Enterococcus hirae [25]): 3 µM (≈ 1.93 µg/mL)
MIC (Escherichia coli [26]): 12 µM (≈ 7.71 µg/mL)
MIC (Escherichia coli [27]): 12 µM (≈ 7.71 µg/mL)
MIC (Klebsiella pneumoniae [14]): 12 µM (≈ 7.71 µg/mL)
MIC (Pseudomonas aeruginosa [28]): 25 µM (≈ 16.1 µg/mL)
MIC (Staphylococcus aureus [29]): 6 µM (≈ 3.85 µg/mL)
MIC (Staphylococcus aureus [30]): 6 µM (≈ 3.85 µg/mL)
MIC (Streptococcus pneumoniae [9]): 12 µM (≈ 7.71 µg/mL)
MIC (Streptococcus pyogenes [31]): 6 µM (≈ 3.85 µg/mL)
SMILES: Clc1cc2nc(C3CCNCC3)n(Cc3ccc(Cn4c(C5CCNCC5)nc5cc(Cl)c(Cl)cc54)cc3)c2cc1Cl

From ChEMBL document CHEMBL1147597, “Synthesis and biological evaluations of novel benzimidazoles as potential antibacterial agents” (Bioorg Med Chem Lett, 2004)
